What was measured:
zinc-free bovine insulin = molecular target: T1, zinc-free bovine insulin (Bos taurus, UniProt P01317); experiment: Inhibition of insulin fibrillation by pyridoxal phosphate, rotator at 39° C.; assay type: physicochemical
T1 construct: A solution of zinc-free bovine insulin was prepared in phosphate buffer
Method: A solution of zinc-free bovine insulin was prepared in phosphate buffer (50 mM, pH 7.4, no sodium chloride) at concentration of 1.2 mg/ml. Two aliquots of 2.0 ml each were transferred into two separate glass tubes (sanitized in boiling water), and 0.10 ml of water was added to one tube, and 0.10 ml of pyridoxal phosphate (100 mg/ml, in water, pH 7.4) was added to the other. Both tubes were capped and put on a rotator (12 rotations per minute) in an oven at temperature of 39° C.
A solution of zinc-free bovine insulin was prepared in phosphate buffer (50 mM, pH 7.0, no sodium chloride) at concentration of 1.2 mg/ml. Two aliquots of 2.0 ml each were transferred into two separate glass tubes (sanitized in boiling water), and 0.10 ml of water was added to each tube. To 4.0 ml of the insulin solution was added 0.20 ml of pyridoxal phosphate (100 mg/ml, in water, pH 7.4) and the pH was adjusted to 7.0, and divided into two separate glass tubes (sanitized in boiling water). All the four tubes were capped and put on a rotator (12 rotations per minute) in an oven at temperature of 39° C.
A solution of zinc-free bovine insulin (50 mg) was dissolved in 0.50 ml of 0.1 N hydrochloric acid, and neutralized using 0.1 N sodium hydroxide until it turned cloudy and clear again. Then 0.667 ml of pyridoxal phosphate solution (167 mg/ml, pH 7.0 in water) was added to the insulin solution, and the pH was re-adjusted to 7.4 using dilute sodium hydroxide. The total volume was adjusted to 2.5 ml with HPLC grade water. Serial dilution using water provided four samples (1.0 ml each) of insulin concentrations at 2.0, 5.0, 10, 15 mg/ml. All the four samples in glass vials, together with 0.5 ml of the remaining insulin-pyridoxal phosphate solution (20 mg/ml) were capped and put on a rotator (12 rotations per minute) in an oven at temperature of 39° C.

BSA [1] = molecular target: T2, BSA (Bos taurus, UniProt P02769); experiment: Reduction of aggregation of BSA induced by methanol, SEC HPLC; assay type: physicochemical, Bovine; settings: precipitated with PEG 3400 and methanol, re-dissolved in PBS
T2 construct: BSA stock solution (35%, in water, 0.85% sodium chloride, from Sigma); purchased Sigma / Sigma Aldrich
T2 sequence (P02769 25-607): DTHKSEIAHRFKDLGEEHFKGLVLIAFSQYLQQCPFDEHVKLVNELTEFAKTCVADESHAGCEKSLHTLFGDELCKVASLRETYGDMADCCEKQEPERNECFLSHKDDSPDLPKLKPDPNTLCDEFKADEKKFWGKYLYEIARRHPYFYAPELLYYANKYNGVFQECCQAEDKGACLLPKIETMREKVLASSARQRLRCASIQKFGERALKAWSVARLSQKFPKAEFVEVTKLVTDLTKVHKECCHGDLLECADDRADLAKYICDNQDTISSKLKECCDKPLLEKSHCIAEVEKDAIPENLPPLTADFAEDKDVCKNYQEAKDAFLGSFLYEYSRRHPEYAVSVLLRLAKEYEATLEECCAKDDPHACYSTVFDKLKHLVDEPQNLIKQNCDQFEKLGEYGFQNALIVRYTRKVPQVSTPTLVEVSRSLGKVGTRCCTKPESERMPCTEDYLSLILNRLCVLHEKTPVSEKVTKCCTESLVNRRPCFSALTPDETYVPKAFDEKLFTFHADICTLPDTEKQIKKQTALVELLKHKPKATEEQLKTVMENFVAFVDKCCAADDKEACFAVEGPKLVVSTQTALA
Method: BSA stock solution (0.050 ml, 35%, 0.85% sodium chloride, Sigma) was diluted with 0.050 ml of sodium phosphate buffer (50 mM, pH 7.4, no sodium chloride) and 0.050 ml of water (HPLC grade). A separate sample was prepared in the same way, but replacing the 0.050 ml of water using 0.050 ml of an excipient solution containing pyridoxal phosphate (represented as X2 in FIG. 1, 100 mg/ml in water, pH 7.4). To each of the two samples in test tubes were added 0.350 ml of an aqueous solution of polyethylene glycol (molecular weight 3400, 75%) to turn the mixtures cloudy, followed by addition of 0.50 ml of methanol (HPLC grade). Then the samples were centrifuged to collect the precipitates. The precipitates were re-dissolved in PBS buffer and analyzed on Size Exclusion Chromatography HPLC. Without excipient, about two thirds of BSA was found in the form of aggregates, while only a quarter of BSA appeared as aggregate in the samples using excipient pyridoxal phosphate.

BSA [2] = molecular target: T2, BSA; experiment: Reduction of aggregation of BSA induced by t-butanol, SEC HPLC; assay type: physicochemical, Bovine; settings: BSA precipitated with t-butanol, re-dissolved in PBS
Method: To three separate test tubes containing 0.050 ml of BSA (35%, 0.85% sodium chloride) and 0.050 ml of phosphate buffer (50 mM, pH 7.4), were respectively added 0.010 ml of water, 0.010 mll of 2-formylbenzenesulfonic acid sodium salt (75 mg/ml, pH 8), and 0.010 ml of pyridoxal phosphate (100 mg/ml, pH 7.4). To each of the three tubes were then added 0.50 ml of PEG solution (75%, molecular weight 3400) followed by centrifugation to give some precipitate. The three supernatants were collected to have BSA at saturated concentrations, and to them were separately added 0.50 ml of t-butanol to have more BSA precipitates after centrifugation. The crops of precipitates from t-butanol were washed with t-butanol twice (0.75 ml each) and re-dissolved in PBS buffer (50 mM sodium phosphate, pH 7.4, 0.85% sodium chloride) for SEC HPLC analysis. Plain BSA produced about 75% of aggregates, the sample with 2-formylbenzenesulfonic acid produced about 60% of aggregates, the sample with pyridoxal phosphate produced less than 50% of aggregates.

T1 sequence (P01317 25-54 limits assumed): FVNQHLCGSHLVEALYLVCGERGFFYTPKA
T1 sequence (P01317 85-105 limits assumed): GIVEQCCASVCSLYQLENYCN

## Cc1ncc(COP(=O)(O)O)c(C=O)c1O [pyridoxal phosphate]
zinc-free bovine insulin; pH 7.0, insulin 1.2 mg/ml, 0.20 ml pyridoxal phosphate 100 mg/ml in 4.0 ml
  Appearance of insulin solution (fibrillation): still remained clear beyond four weeks
zinc-free bovine insulin; pH 7.4, insulin 1.2 mg/ml, 0.10 ml pyridoxal phosphate 100 mg/ml in 2.0 ml
  Appearance of insulin solution (fibrillation): still remained clear after five weeks
zinc-free bovine insulin; pH 7.4, insulin 2.0, 5.0, 10, 15 and 20 mg/ml with pyridoxal phosphate serially diluted
  Appearance of insulin solution (fibrillation): still remained clear after three weeks
BSA [1]
  Fraction of BSA appearing as aggregate: a quarter
BSA [2]
  Aggregates produced: less than 50%

Source: patent US8642532B2, “Excipients for protein stabilization” (priority 2007, dated 2014)
